This is an account of results in US20030017518A1, “Non-radio-active assay of LPS kinases” (priority 2001, published 2003).

For orientation: Km means the substrate concentration at which the rate is half of its maximum. A word on the MIC: it is the least concentration at which growth counts as inhibited. For orientation: Vmax means the rate approached at saturating substrate. One may read the kcat as the maximal rate divided by the concentration of active sites.

In data set [1] the target is T1, WaaP from E. coli (WaaPEc) (Escherichia coli, UniProt Q9R9D6).
T1 construct: His-tag (N)
The settings on record: cited from earlier work.

Data set [2] deals with E. coli F470 (waaP−)/waaPPa(K69R). The data set is described as follows: MIC of novobiocin and SDS, in vivo complementation assay. Type of data set: cell-based. From the text: (§1) Site-directed mutagenesis and in vivo complementation assay—waaP was amplified by polymerase chain reaction (PCR) from pCOREc1 (de Kievit and Lam, 1997) with the flanking up- and down-stream primers ^5′[…]^3′ (SEQ ID NO: 3) and ^5′[…]^3′ (SEQ ID NO: 4) containing Baam HI and Hind III respectively. The PCR product was cloned into the complementation vector pUCP26 (West, 1994) as a positive control for complementation assay. Mutations of waaP were introduced by the method of “overlapping extension” as described by Horton (Horton, 1993) using PCR with the flanking primers as well as the primers shown below. K69A mutation was introduced with the primer (only up-strand was described here) ^5′[…]^3′ (SEQ ID NO: 5); K69R with ^5′[…]^3′ (SEQ ID NO: 6); D163A with ^5′[…]^3′ (SEQ ID NO: 7); and D163E with ^5′[…]^3′ (SEQ ID NO: 8). Underlined nucleotides indicated the mutations. The PCR products were then cloned into pUCP26 at Bam HI and Hind III sites respectively, and transformed into E. coli F470 7waaP- (Yethon 1998). Constructs of the mutations of waaP were sequenced to confirm the mutation. In vivo complementation was tested for the minimum inhibition concentration (MIC) of SDS and novobiocin, respectively according to Walsh, et al. 2000. E. coli F470 7waaP- was used as the negative control.
(§2) To validate the accuracy of the alignment comparisons in FIG. 2, site-directed mutagenesis of waaPPa was performed targeting on K^69 and […], respectively. The effect of the site-directed mutation was evaluated by their ability to complement waaP-Ec. It is noteworthy that the complementation assay was performed using waaP-Ec since waaP mutation is lethal to P. aeruginosa. In Table I, the complementation of waaP-Ec by wild type waaPPa increased the MICs of waaP-Ec by 3 and 30 times to novobiocin and SDS, respectively. However, the MICs of all the mutants were at the same level as that of waaP-Ec.

Data set [3] deals with E. coli F470 (waaP−)/waaPPa(D163A). The data set is described as above. Type of data set: cell-based.
Text: as §1, §2

For data set [4], the system named is E. coli F470 (waaP−). The data set is described as above. Type of data set: cell-based.
Text: as §1, §2

Data set [5] concerns E. coli F470 (waaP−)/waaPPa. The data set is described as above. Conditions: for increase of the MIC of waaP-Ec by complementation with wild type waaPPa: versus E. coli F470 waaP− mutant. Type of data set: cell-based.
Text: as §1, §2

Data set [6] deals with E. coli F470 (waaP−)/waaPPa(D163E). Described as above. Format: cell-based.
Text: as §1, §2

Data set [7] concerns E. coli F470 (waaP−)/waaPPa(K69A). The description is as above. Type of data set: cell-based.
Text: as §1, §2

The test system of data set [8] is F470 (wild type). The data set is described as above. Format: cell-based, E. coli. The source says: Site-directed mutagenesis and in vivo complementation assay—waaP was amplified by polymerase chain reaction (PCR) from pCOREc1 (de Kievit and Lam, 1997) with the flanking up- and down-stream primers ^5′[…]^3′ (SEQ ID NO: 3) and ^5′[…]^3′ (SEQ ID NO: 4) containing Baam HI and Hind III respectively. The PCR product was cloned into the complementation vector pUCP26 (West, 1994) as a positive control for complementation assay. Mutations of waaP were introduced by the method of “overlapping extension” as described by Horton (Horton, 1993) using PCR with the flanking primers as well as the primers shown below. K69A mutation was introduced with the primer (only up-strand was described here) ^5′[…]^3′ (SEQ ID NO: 5); K69R with ^5′[…]^3′ (SEQ ID NO: 6); D163A with ^5′[…]^3′ (SEQ ID NO: 7); and D163E with ^5′[…]^3′ (SEQ ID NO: 8). Underlined nucleotides indicated the mutations. The PCR products were then cloned into pUCP26 at Bam HI and Hind III sites respectively, and transformed into E. coli F470 7waaP- (Yethon 1998). Constructs of the mutations of waaP were sequenced to confirm the mutation. […]
To validate the accuracy of the alignment comparisons in FIG. 2, site-directed mutagenesis of waaPPa was performed targeting on K^69 and […], respectively. The effect of the site-directed mutation was evaluated by their ability to complement waaP-Ec. […]

Data set [9] concerns the target T2, WaaPHisC (Pseudomonas aeruginosa, UniProt Q9HUF7).
T2 construct: made in house; host or cells: E. coli BL21(DE3)pLysS, vector pET30a(+)
Type of data set: biochemical, P. aeruginosa. Here is the method: Antigen coating was accomplished by adding 50 μl LPS or enzyme reaction mixture to each well and then mixing with equal amount of chloroform-ethanol ([…]/EtOH) (1:10, v/v)). The plate was incubated at room temperature in the fume hood (flow rate at 150 ft·min^−1) overnight to allow the evaporation of the solvent. The ELISA was performed according to Bantroch et al. (1994) (Bantroch, 1994) with the following modifications. […] For the colorimetric method (Bantroch, 1994), the ELISA was developed at 37° C. for 2 h and the optical density at 405 nm was determined on a microplate reader (Flow Laboratories, Mississauga, ON). For the chemiluminescence development, 100 μl of the chemiluminescence substrate CDP-Star® Ready-to-Use with Emerald-II™ (CDP*) (Applied Biosystems, Bedford, Mass.) with 1:5 (v/v) diluted in diethanolamine buffer (9.6% (v/v) and 0.01% (w/v) MgCl2, pH 9.8) was added to each well. After incubation at room temperature for 20 min, the response of chemiluminescence was measured on a 1420-VICTOR^2 Multilabel Counter (Wallac, Montreal, QC) using chemiluminescence program.
The reaction mixture was incubated at 37° C. for 30 min (15 min for kinetics experiments) and quenched by the addition of 50 μl chloroform/ethanol (1:10) solution. The plate was then left at room temperature in the fume hood overnight and subjected to ELISA the next morning. PAO1-LPS was used as the standard to quantify phosphorylated LPS.
Therefore, the reactions on the kinetics studies measured the phosphorylation within the initial 15 min.

T1 sequence (Q9R9D6 whole entry): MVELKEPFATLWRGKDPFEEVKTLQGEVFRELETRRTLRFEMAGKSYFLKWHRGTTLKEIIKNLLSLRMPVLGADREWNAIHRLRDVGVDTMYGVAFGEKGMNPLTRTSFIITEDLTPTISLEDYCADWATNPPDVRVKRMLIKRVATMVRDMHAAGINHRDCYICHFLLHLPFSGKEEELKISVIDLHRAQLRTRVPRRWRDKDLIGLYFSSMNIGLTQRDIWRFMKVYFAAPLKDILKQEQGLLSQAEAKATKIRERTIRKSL

As for `Nc1ncnc2c1ncn2[C@@H]1O[C@H](COP(=O)(O)OP(=O)(O)OP(=O)(O)O)[C@@H](O)[C@H]1O` [ATP, adenosine triphosphate], the Km in data set [1] is 130 µM.
In the case of `CO[C@@H]1[C@@H](OC(N)=O)[C@@H](O)[C@H](Oc2ccc3c(O)c(NC(=O)c4ccc(O)c(CC=C(C)C)c4)c(=O)oc3c2C)OC1(C)C` [Novobiocin, novobiocin], the MIC in data set [2] (Escherichia coli) was determined as 50 µg/mL; in [3] (Escherichia coli) it was 25 µg/mL; in data set [4] (Escherichia coli), 50 µg/mL; in [5] (Escherichia coli), 150 µg/mL; in data set [6] (Escherichia coli), 50 µg/mL; in data set [7] (Escherichia coli), 50 µg/mL. Moreover, in [8] (Escherichia coli), the minimal inhibitory concentration (MIC) was over 200 µg/mL. Moreover, the “increase of the MIC of waaP-Ec by complementation with wild type waaPPa” value in [5] was 3 times.
In the case of `CCCCCCCCCCCCOS(=O)(=O)[O-].[Na+]` [SDS], the MIC in [2] (strain E. coli F470 (waaP−)/waaPPa(K69R)) was 400 µg/mL; in [3] (strain E. coli F470 (waaP−)/waaPPa(D163A)) it was 400 µg/mL; in [4] (strain E. coli F470 (waaP−)) it was 400 µg/mL; in [5] (strain E. coli F470 (waaP−) complemented with wild type waaPPa), 12,500 μg.ml^−1; in data set [6] (strain E. coli F470 (waaP−)/waaPPa(D163E)), 200 µg/mL; in [7] (strain E. coli F470 (waaP−)/waaPPa(K69A)), 400 µg/mL. Moreover, the MIC in data set [8] (strain F470 (wild type)) was >50,000 μg.ml^−1. Moreover, the “increase of the MIC of waaP-Ec by complementation with wild type waaPPa” value in [5] was found to be 30 times.

B1: WaaPHisC: recombinant P. aeruginosa WaaP with C-terminal 6×His tag, heptose/tyrosine kinase (protein, UniProt Q9HUF7 1-268, looked up)
Lipopolysaccharide core …: MRLVLEEPFKRLWNGRDPFEAVEALQGKVYRELEGRRTLRTEVDGRGYFVKIHRGIGWGEIAKNLLTAKLPVLGARQEWQAIRRLHEAGVATMTAVAYGERGSDPARQHSFIVTEELAPTVDLEVFSQDWRERPPPPRLKRALVEAVARMVGDMHRAGVNHRDCYICHFLLHTDKPVSADDFRLSVIDLHRAQTRDATPKRWRNKDLAALYFSALDIGLTRRDKLRFLRTYFRRPLREILRDEAGLLAWMERKAEKLYERKQRYGDLL
modifications: C-terminal 6xHis tag
notes: recombinant P. aeruginosa WaaP with C-terminal 6×His tag, heptose/tyrosine kinase
On to B1, for which, in data set [9] (phosphorylation of HF-LPS), the Vmax was found to be 408.24 pmol/min and the kcat was 0.4538 s⁻¹. The “enzyme activity remained after storage” value in data set [9] (storage at −20° C. for 7 days) was “about 70%”.
